The conditions of data set [1]: cited from earlier work. The source says:
With the target NPP-caged peptides in hand, we examined their photochemical reactivity in cell-compatible aqueous solution (phosphate-buffered saline, pH 7.2). […] Collectively, they were consumed 25–40 ...

For another data set, the target named is T1, CCK2R (Mus musculus, UniProt P56481).
T1 construct: from tissue; host or cells: acute mouse brain slices, PV interneurons of hippocampal CA1 (PvalbCre; Ai14 mice)
T1 sequence (P56481 1-453): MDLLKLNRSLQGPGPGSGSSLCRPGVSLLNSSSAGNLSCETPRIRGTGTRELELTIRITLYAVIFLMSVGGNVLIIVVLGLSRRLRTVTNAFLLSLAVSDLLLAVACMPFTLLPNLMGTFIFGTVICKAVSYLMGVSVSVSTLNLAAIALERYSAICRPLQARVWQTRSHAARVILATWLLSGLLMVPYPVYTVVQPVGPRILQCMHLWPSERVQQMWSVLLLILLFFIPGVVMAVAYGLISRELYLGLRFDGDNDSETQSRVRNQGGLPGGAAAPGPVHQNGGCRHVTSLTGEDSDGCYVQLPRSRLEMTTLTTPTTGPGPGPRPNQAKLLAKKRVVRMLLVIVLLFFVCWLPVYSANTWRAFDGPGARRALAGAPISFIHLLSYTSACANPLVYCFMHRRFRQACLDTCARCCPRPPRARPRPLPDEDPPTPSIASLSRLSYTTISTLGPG
In words: Whole-cell recording of membrane currents, PV interneurons of hippocampal CA1, acute brain slices. It is filed as cell-based. The conditions noted are these: antagonist 1 μM. The text has this: Photoactivatable neuropeptides are powerful tools that can drive studies into the mechanisms of endogenous receptor signaling in acute brain slices.[3],[8],[40] To determine if NPP-caged peptides are compatible with such experiments, we established electrophysiological assays for measuring the activation of GRPR, OTR, NK1R, and CCK2R in acute brain slices taken from transgenic mice. These assays involved whole cell recordings of membrane currents from genetically defined neurons located in different brain regions where endogenous receptor activation produces inward, excitatory currents that facilitate action potential firing. Neuropeptide receptor-expressing cells were identified for fluorescence-guided, targeted electrophysiological recordings using transgenic mice that contain transgenes encoding Cre-recombinase under a promotor that is specific to the cell of interest, as well as a Cre-dependent tdTomato fluorescent protein via the Ai14 (Rosa26-lsl-tdTomato) reporter strain. […]
(A) Average inward currents over time after bath application of GRP(14-27)-NPP (3 μM, n = 5 cells from 4 mice) or GRP(14-27) (300 nM, n = 5 from 4 mice), recorded from fluorescently labeled VIP interneurons in layer 1 of the motor cortex. Data are expressed as the mean ± SEM. […] Data are expressed as the mean ± SEM. […] Data are expressed as the mean ± SEM. […] Data are expressed as the mean ± SEM. […]

The next data set has as its system locus coeruleus. The conditions noted are these: bath applied; cited from earlier work. The source says: Although extracellular peptidases are known to limit peptide concentrations in the nervous system, how they shape the temporal dynamics of neuropeptide signaling in the brain is poorly understood. For example, rapid proteolysis by peptidases localized near peptide receptors might limit the peak concentration of peptide and thus the degree of receptor activation.

Data set [2] relates to its receptors (GRP receptors). The conditions noted are these: cited from earlier work. The text has this:
This motif is associated with immature neuropeptides that are likely not intended for receptor binding. […] We therefore reasoned that inclusion of the entire C-terminal amidation sequence might be particularly effective at reducing binding affinity if incorporated into C-terminally caged peptides, especially due to the presence of bulky, positively charged amino acids found in the dibasic motif. To mimic the proneuropept ...

Turning to `COc1ccc([N+](=O)[O-])c2c1CCN2C(=O)CC[C@H](N)C(=O)O` [MNI-glutamate, 4-Methoxy-7-nitroindolinyl-caged-L-glutamate], in data set [1], the quantum yield is recorded as 0.065. For `Cc1cccc(NC(=O)N[C@@H]2N=C(c3ccccc3)c3ccccc3N(CC(=O)c3ccccc3C)C2=O)c1` [YM022, (R)-N-[2,3-Dihydro-1-[2-(2-methylphenyl)-2-oxoethyl]-2-oxo-5-phenyl-1H-1,4-benzodiazepin-3-yl]-N'-(3-methylphenyl)-urea], at CCK2R, the “block of light-evoked CCK(8S)-NPP current” value is “strongly attenuated”. As to enkephalin, the “increase of potency by peptidase inhibition” value in the data set with locus coeruleus is listed as 10 fold.

B1: progastrin-releasing peptide: prohormone of gastrin-releasing peptide, literature finding (protein, UniProt P07492 24-148, looked up)
pro-form: VPLPAGGGTVLTKMYPRGNHWAVGHLMGKKSTGESSSVSERGSLKQQLREYIRWEEAARNLLGLIEAKENRNHQPPQPKALGNQQPSWDSEDSSNFKDVGSKGKVGRLSAPGSQREGRNPQLNQQ
modifications: pro-form
notes: prohormone of gastrin-releasing peptide, literature finding
For B1, the receptor binding result in data set [2] is reported as “does not bind”.

The values are drawn from paper PMC10510324, “A Biomimetic C-Terminal Extension Strategy for Photocaging Amidated Neuropeptides” (Journal of the American Chemical Society, 2023).
